In ChEMBL document CHEMBL1201862, “PubChem BioAssay data set” (2004):
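Briefly, cells in 96-well plates were exposed to five compound concentrations for 48 h, and endpoints were estimated by linear interpolation. Abbreviation: GI50, concentration required for 50% inhibition of growth.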 Calls of active or inactive are those of the source. No stated cut-off is given here; in the data, active = GI50 up to about 1.1 µM and inactive = higher.

What was measured:
Assay in all cases: inhibition of tumour cell growth, NCI panel, 48 h
786-0 = test system: 786-0
A549 = test system: A549
ACHN = test system: ACHN
CCRF-CEM = test system: CCRF-CEM
COLO 205 = test system: COLO 205
DU-145 = test system: DU-145
HCC 2998 = test system: HCC 2998
HCT-116 = test system: HCT-116
HCT-15 = test system: HCT-15
HL-60 = test system: HL-60
HOP-62 = test system: HOP-62
HOP-92 = test system: HOP-92
HT-29 = test system: HT-29
Hs-578T = test system: Hs-578T
IGROV-1 = test system: IGROV-1
K562 = test system: K562
KM12 = test system: KM12
LOX IMVI = test system: LOX IMVI
M14 = test system: M14
MCF7 = test system: MCF7
MDA-MB-231 = test system: MDA-MB-231
MDA-MB-435 = test system: MDA-MB-435
MDA-N = test system: MDA-N
MOLT-4 = test system: MOLT-4
Malme-3M = test system: Malme-3M
NCI-H226 = test system: NCI-H226
NCI-H23 = test system: NCI-H23
NCI-H460 = test system: NCI-H460
NCI-H522 = test system: NCI-H522
NCI/ADR-RES = test system: NCI/ADR-RES
OVCAR-3 = test system: OVCAR-3
OVCAR-4 = test system: OVCAR-4
OVCAR-5 = test system: OVCAR-5
OVCAR-8 = test system: OVCAR-8
PC-3 = test system: PC-3
RPMI-8226 = test system: RPMI-8226
RXF 393 = test system: RXF 393
SF-268 = test system: SF-268
SF-295 = test system: SF-295
SF-539 = test system: SF-539
SK-MEL-28 = test system: SK-MEL-28
SK-MEL-2 = test system: SK-MEL-2
SK-MEL-5 = test system: SK-MEL-5
SK-OV-3 = test system: SK-OV-3
SN12C = test system: SN12C
SNB-19 = test system: SNB-19
SNB-75 = test system: SNB-75
SR = test system: SR
SW-620 = test system: SW-620
T47D = test system: T47D
TK-10 = test system: TK-10
U-251 = test system: U-251
UACC-257 = test system: UACC-257
UACC-62 = test system: UACC-62
UO-31 = test system: UO-31
CAKI-1 = test system: CAKI-1
EKVX = test system: EKVX

COC(=O)/C(=C\Nc1cccc(C)n1)S(=O)(=O)c1ccc(C)cc1
GI50 (786-0): > 100 µM (inactive) | GI50 (A549): 60 µM (inactive) | GI50 (ACHN): > 100 µM (inactive) | GI50 (CCRF-CEM): 37.8 µM (inactive) | GI50 (COLO 205): 22.2 µM (inactive) | GI50 (DU-145): > 100 µM (inactive) | GI50 (HCC 2998): > 100 µM (inactive) | GI50 (HCT-116): 52.2 µM (inactive) | GI50 (HCT-15): 45.3 µM | GI50 (HL-60): 20.7 µM (inactive) | GI50 (HOP-62): > 100 µM (inactive) | GI50 (HOP-92): 54.5 µM (inactive) | GI50 (HT-29): 47.4 µM (inactive) | GI50 (Hs-578T): 38.9 µM (inactive) | GI50 (IGROV-1): > 100 µM (inactive) | GI50 (K562): 21.1 µM (inactive) | GI50 (KM12): 35.5 µM (inactive) | GI50 (LOX IMVI): 79.4 µM (inactive) | GI50 (M14): 45.7 µM (inactive) | GI50 (MCF7): 68.2 µM (inactive) | GI50 (MDA-MB-231): 64.3 µM (inactive) | GI50 (MDA-MB-435): 39 µM (inactive) | GI50 (MDA-N): 30.1 µM (inactive) | GI50 (MOLT-4): 28.6 µM (inactive) | GI50 (Malme-3M): > 100 µM (inactive) | GI50 (NCI-H226): 36.5 µM (inactive) | GI50 (NCI-H23): 40.6 µM (inactive) | GI50 (NCI-H460): 61.7 µM (inactive) | GI50 (NCI-H522): 66.4 µM (inactive) | GI50 (NCI/ADR-RES): 76.4 µM (inactive) | GI50 (OVCAR-3): 86.3 µM (inactive) | GI50 (OVCAR-4): 93.5 µM (inactive) | GI50 (OVCAR-5): > 100 µM (inactive) | GI50 (OVCAR-8): 77.6 µM (inactive) | GI50 (PC-3): 38.8 µM (inactive) | GI50 (RPMI-8226): > 100 µM (inactive) | GI50 (RXF 393): 70.8 µM (inactive) | GI50 (SF-268): 96.2 µM (inactive) | GI50 (SF-295): > 100 µM (inactive) | GI50 (SF-539): 52.4 µM (inactive) | GI50 (SK-MEL-28): 67 µM (inactive) | GI50 (SK-MEL-2): 33.4 µM (inactive) | GI50 (SK-MEL-5): 36.8 µM (inactive) | GI50 (SK-OV-3): > 100 µM (inactive) | GI50 (SN12C): > 100 µM (inactive) | GI50 (SNB-19): 39.2 µM (inactive) | GI50 (SNB-75): 71 µM (inactive) | GI50 (SR): 61.2 µM (inactive) | GI50 (SW-620): 27.1 µM (inactive) | GI50 (T47D): 48 µM (inactive) | GI50 (TK-10): 96.2 µM (inactive) | GI50 (U-251): 73.3 µM (inactive) | GI50 (UACC-257): 69.2 µM (inactive) | GI50 (UACC-62): 31.5 µM (inactive) | GI50 (UO-31): 36.4 µM (inactive)

COc1c(C(=O)NCCN(CCNC(=O)c2cccc(-c3cccc(C(=O)N(C)C)c3OC)c2OC)CCNC(=O)c2cccc(-c3cccc(C(=O)N(C)C)c3OC)c2OC)cccc1-c1cccc(C(=O)N(C)C)c1OC
GI50 (786-0): 57.3 µM (inactive) | GI50 (A549): > 100 µM (inactive) | GI50 (ACHN): > 100 µM (inactive) | GI50 (CAKI-1): > 100 µM (inactive) | GI50 (CCRF-CEM): 31.3 µM (inactive) | GI50 (COLO 205): 22.1 µM (inactive) | GI50 (DU-145): 32.7 µM (inactive) | GI50 (EKVX): 47.6 µM (inactive) | GI50 (HCC 2998): 17.2 µM (inactive) | GI50 (HCT-116): 20 µM (inactive) | GI50 (HCT-15): > 100 µM | GI50 (HL-60): 39.4 µM (inactive) | GI50 (HOP-62): 97.7 µM (inactive) | GI50 (HOP-92): 14.4 µM (inactive) | GI50 (HT-29): 33.1 µM (inactive) | GI50 (Hs-578T): 32.4 µM (inactive) | GI50 (IGROV-1): 36.1 µM (inactive) | GI50 (K562): 23.8 µM (inactive) | GI50 (KM12): 17.3 µM (inactive) | GI50 (LOX IMVI): 18.1 µM (inactive) | GI50 (M14): > 100 µM (inactive) | GI50 (MCF7): 18.8 µM (inactive) | GI50 (MDA-MB-231): 32.4 µM (inactive) | GI50 (MDA-MB-435): 20.9 µM (inactive) | GI50 (MDA-N): 17.8 µM (inactive) | GI50 (MOLT-4): 24.7 µM (inactive) | GI50 (Malme-3M): 18.7 µM (inactive) | GI50 (NCI-H226): 17.8 µM (inactive) | GI50 (NCI-H23): 43.2 µM (inactive) | GI50 (NCI-H460): 94.4 µM (inactive) | GI50 (NCI-H522): 21.6 µM (inactive) | GI50 (NCI/ADR-RES): > 100 µM (inactive) | GI50 (OVCAR-3): 16.1 µM (inactive) | GI50 (OVCAR-4): 28.3 µM (inactive) | GI50 (OVCAR-5): 34.2 µM (inactive) | GI50 (OVCAR-8): > 100 µM (inactive) | GI50 (PC-3): 38.4 µM (inactive) | GI50 (RPMI-8226): 25.9 µM (inactive) | GI50 (RXF 393): 26.5 µM (inactive) | GI50 (SF-268): 15.3 µM (inactive) | GI50 (SF-295): > 100 µM (inactive) | GI50 (SF-539): 18.1 µM (inactive) | GI50 (SK-MEL-28): 19.5 µM (inactive) | GI50 (SK-MEL-5): 30.5 µM (inactive) | GI50 (SK-OV-3): 48.1 µM (inactive) | GI50 (SN12C): 24.4 µM (inactive) | GI50 (SNB-19): 56.5 µM (inactive) | GI50 (SNB-75): 28.7 µM (inactive) | GI50 (SR): 26.6 µM (inactive) | GI50 (SW-620): 38.1 µM (inactive) | GI50 (T47D): 15.1 µM (inactive) | GI50 (U-251): 34 µM (inactive) | GI50 (UACC-257): 29 µM (inactive) | GI50 (UACC-62): 31.6 µM (inactive) | GI50 (UO-31): > 100 µM (inactive)
